Reference: patent US7868005B2, “Pyrazinyl substituted piperazine-piperidines with CXCR3 antagonist activity” (Schering Corporation, priority 2005, dated 2011)

target: T1, human CXCR3 (N-delta 4) (Homo sapiens, UniProt P49682); assay: Human CXCR3 (N-delta 4) Scintillation Proximity Assay (SPA), [125I] IP-10 binding to Ba/F3-hCXCR3 membranes; settings: IC50 rating, Table 1; read-out: IC50
T1 construct: CD8 leader (N); Flag; expressed in transfected cells; membranes prepared
T1 sequence (P49682 5-368 limits assumed): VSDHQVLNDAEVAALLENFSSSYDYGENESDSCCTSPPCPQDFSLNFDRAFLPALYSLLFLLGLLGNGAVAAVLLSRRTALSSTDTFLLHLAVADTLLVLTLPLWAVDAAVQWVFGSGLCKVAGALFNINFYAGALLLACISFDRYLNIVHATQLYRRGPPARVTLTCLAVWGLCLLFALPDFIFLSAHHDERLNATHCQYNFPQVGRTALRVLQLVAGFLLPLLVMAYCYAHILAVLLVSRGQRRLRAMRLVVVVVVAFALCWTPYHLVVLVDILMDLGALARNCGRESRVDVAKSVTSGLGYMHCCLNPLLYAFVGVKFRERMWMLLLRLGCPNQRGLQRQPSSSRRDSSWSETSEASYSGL

IC50, < 0.025 µM:
CC[C@H]1CN(c2ncc(C(N)=O)nc2C)[C@H](C)CN1C1CCN(Cc2ccc(C#N)cc2)CC1 [compound 434]
CC[C@H]1CN(c2ncc(C(=O)NC)nc2C)CCN1C1CCN(C(=O)c2ccc(F)cc2)CC1 [compound 435]
CC[C@H]1CN(c2ncc(C(=O)NC)nc2C)CCN1C1CCN(C(=O)c2ccc(Cl)cc2)CC1 [compound 437]
CC[C@H]1CN(c2cnc(C(N)=O)cn2)CCN1C1CCN([C@@H](CO)c2ccc(Cl)cc2)CC1 [compound 438]
CC[C@H]1CN(c2ncc(C(=O)NC3CC3)nc2C)CCN1C1CCN(Cc2ccc(C)cc2)CC1 [compound 439]
CC[C@H]1CN(c2ncc(C(=O)NC3CC3)nc2C)CCN1C1CCN(Cc2ccc(F)cc2)CC1 [compound 440]
CC[C@H]1CN(c2ncc(C(N)=O)nc2C)CCN1C1CCN(C(=O)c2ccc(Cl)cc2N)CC1 [compound 442]
CC[C@H]1CN(c2ncc(C(N)=O)nc2C)CCN1C1CCN([C@@H](CO)c2ccc(Cl)cc2)CC1 [compound 443]
CC[C@H]1CN(c2ncc(C(N)=O)nc2C)CCN1C1CCN([C@H](CO)c2ccc(Cl)cc2)CC1 [compound 444]
CC[C@H]1CN(c2ncc(C(N)=O)nc2C)CCN1C1CCN(Cc2ccc(C(F)(F)F)cc2)CC1 [compound 445]
CC[C@H]1CN(c2ncc(C(=O)NC3CC3)nc2C)CCN1C1CCN(C(=O)c2ccc(C)cc2)CC1 [compound 446]
CC[C@H]1CN(c2ncc(C(=O)NC3CC3)nc2C)CCN1C1CCN(C(=O)c2ccc(F)cc2)CC1 [compound 447]
CC[C@H]1CN(c2ncc(C(=O)NC3CC3)nc2C)CCN1C1CCN(Cc2ccc(C)c(F)c2)CC1 [compound 448]
CC[C@H]1CN(c2ncc(C(=O)NC3CC3)nc2C)CCN1C1CCN(Cc2ccc(Cl)cc2)CC1 [compound 449]
CC[C@H]1CN(c2ncc(C(=O)NC3CC3)nc2C)CCN1C1CCN(Cc2ccc(F)c(F)c2)CC1 [compound 450]
CCNC(=O)c1cnc(N2CCN(C3CCN(C(=O)c4ccc(Cl)cc4)CC3)[C@@H](CC)C2)c(C)n1 [compound 451]
CC[C@H]1CN(c2ncc(C(=O)NC)nc2C)[C@H](C)CN1C1CCN(C(=O)c2ccc(Cl)cc2)CC1 [compound 452]
CC[C@H]1CN(c2ncc(C(N)=O)nc2C)[C@H](C)CN1C1CCN([C@@H](CO)c2ccc(Cl)cc2)CC1 [compound 453]
CC[C@H]1CN(c2ncc(C(=O)NC)nc2C)CCN1C1CCN(C(=O)c2ccc(Cl)c(F)c2)CC1 [compound 454]
CC[C@H]1CN(c2ncc(C(=O)NC)nc2C)CCN1C1CCN(C(=O)c2ccc(Cl)cc2F)CC1 [compound 455]
CC[C@H]1CN(c2ncc(C(=O)NC)nc2C)CCN1C1CCN(C(=O)c2ccc(F)c(Cl)c2)CC1 [compound 456]
CC[C@H]1CN(c2ncc(C(N)=O)nc2Cl)CCN1C1CCN([C@@H](CO)c2ccc(Cl)cc2)CC1 [compound 457]
CC[C@H]1CN(c2ncc(C(N)=O)nc2Cl)CCN1C1CCN([C@H](CO)c2ccc(Cl)cc2)CC1 [compound 458]
CC[C@H]1CN(c2ncc(C(=O)NC3CC3)nc2C)CCN1C1CCN(C(=O)c2ccc(C)c(F)c2)CC1 [compound 459]
CC[C@H]1CN(c2ncc(C(=O)NC3CC3)nc2C)CCN1C1CCN(C(=O)c2ccc(Cl)cc2)CC1 [compound 460]
CC[C@H]1CN(c2ncc(C(=O)NC3CC3)nc2C)CCN1C1CCN(C(=O)c2ccc(F)c(F)c2)CC1 [compound 461]
CC[C@H]1CN(c2ncc(C(=O)NC3CC3)nc2C)CCN1C1CCN(C(=O)c2ccc(F)cc2F)CC1 [compound 462]
CC[C@H]1CN(c2ncc(C(N)=O)nc2C)CCN1C1CCN([C@@H](C(=O)OC)c2ccc(Cl)cc2)CC1 [compound 463]
CC[C@H]1CN(c2ncc(C(N)=O)nc2C)CCN1C1CCN(C(C(=O)OC)c2ccc(Cl)cc2)CC1 (stereo partly shown) [compound 464]
CC[C@H]1CN(c2ncc(C(=O)OC)nc2C)[C@H](C)CN1C1CCN([C@@H](CO)c2ccc(Cl)cc2)CC1 [compound 465]
CC[C@H]1CN(c2ncc(C(N)=O)nc2C)[C@H](C)CN1C1CCN(Cc2ccc(OC(F)(F)F)cc2)CC1 [compound 466]
CC[C@H]1CN(c2ncc(C(=O)NC3CC3)nc2C)CCN1C1CCN(C(=O)c2ccc(F)c(OC)c2)CC1 [compound 467]
CC[C@H]1CN(c2ncc(C(=O)NC3CC3)nc2C)[C@H](C)CN1C1CCN(C(=O)c2ccc(Cl)cc2)CC1 [compound 468]
CC[C@H]1CN(c2ncc(C(=O)NC3CC3)nc2C)CCN1C1CCN([C@@H](CO)c2ccc(Cl)cc2)CC1 [compound 469]
CC[C@H]1CN(c2ncc(C(=O)NC3CC3)nc2C)CCN1C1CCN([C@H](CO)c2ccc(Cl)cc2)CC1 [compound 470]
CC[C@H]1CN(c2ncc(C(=O)NC3CC3)nc2C)CCN1C1CCN([C@@H](CO)c2ccc(F)c(F)c2)CC1 [compound 471]
CC[C@H]1CN(c2ncc(C(=O)NC3CC3)nc2C)CCN1C1CCN([C@H](CO)c2ccc(F)c(F)c2)CC1 [compound 472]
CC[C@H]1CN(c2ncc(C(=O)NC3CC3)nc2C)CCN1C1CCN(Cc2ccc(C(F)(F)F)cc2)CC1 [compound 473]
CCNC(=O)c1cnc(N2C[C@H](CC)N(C3CCN(C(=O)c4ccc(Cl)cc4)CC3)C[C@H]2C)c(Cl)n1 [compound 474]
CC[C@H]1CN(c2ncc(C(=O)NC)nc2C)CCN1C1CCN(C(=O)c2ccc(OC(F)(F)F)cc2)CC1 [compound 475]
CC[C@H]1CN(c2ncc(C(N)=O)nc2Cl)CCN1C1CCN([C@@H](C(=O)OC)c2ccc(Cl)cc2)CC1 [compound 476]
CC[C@H]1CN(c2ncc(C(=O)NC)nc2C(F)(F)F)CCN1C1CCN(C(=O)c2ccc(Cl)cc2)CC1 [compound 477]
CC[C@H]1CN(c2ncc(C(N)=O)nc2C(F)(F)F)[C@H](C)CN1C1CCN(C(=O)c2ccc(Cl)cc2)CC1 [compound 478]
CC[C@H]1CN(c2ncc(C(=O)NC3(C)CC3)nc2C)[C@H](C)CN1C1CCN(C(=O)c2ccc(Cl)cc2)CC1 [compound 479]
CC[C@H]1CN(c2nc(N)c(C(=O)NC3CC3)nc2C)[C@H](C)CN1C1CCN(C(=O)c2ccc(Cl)cc2)CC1 [compound 480]
CC[C@H]1CN(c2ncc(C(=O)NC3CC3)nc2C)[C@H](C)CN1C1CCN([C@H](CO)c2ccc(Cl)cc2)CC1 [compound 481]
